In ChEMBL document CHEMBL1148587, “Imidazo[1,2-a]pyrimidines as functionally selective and orally bioavailable GABA(A)alpha2/alpha3 binding site agonists for the treatment of anxiety disorders” (J Med Chem, 2006):
The source made the active and inactive calls. The calls are words filed in the database; no cut-off is given here.

Key:
[1] = Oral bioavailability in dog; format: ADME, organism-based, Canis lupus familiaris; details: in vivo
[2] = Plasma clearance in dog; format: ADME, organism-based, Canis lupus familiaris
[3] = Oral bioavailability in rhesus monkey; format: ADME, organism-based, Macaca mulatta; details: in vivo
[4] = Plasma clearance in rhesus monkey; format: ADME, organism-based, Macaca mulatta
[5] = Half life in rhesus monkey; format: ADME, organism-based, Macaca mulatta; details: in vivo
Rattus norvegicus [6] = experiment: Activity in rat elevated plus maze assay at 1 mg/kg, po; format: functional, organism-based; set-up: dose 1 mg/kg
[7] = molecular target: T1, GABA-A receptor; alpha-3/beta-3/gamma-2 (Homo sapiens, UniProt P18507+P28472+P34903); experiment: Displacement of [3H]Ro-151788 from human recombinant GABAA alpha3 in combination with beta3gamma2 expressed in L(tk-) cells; format: cell-based
T1 sequence (P18507 whole entry): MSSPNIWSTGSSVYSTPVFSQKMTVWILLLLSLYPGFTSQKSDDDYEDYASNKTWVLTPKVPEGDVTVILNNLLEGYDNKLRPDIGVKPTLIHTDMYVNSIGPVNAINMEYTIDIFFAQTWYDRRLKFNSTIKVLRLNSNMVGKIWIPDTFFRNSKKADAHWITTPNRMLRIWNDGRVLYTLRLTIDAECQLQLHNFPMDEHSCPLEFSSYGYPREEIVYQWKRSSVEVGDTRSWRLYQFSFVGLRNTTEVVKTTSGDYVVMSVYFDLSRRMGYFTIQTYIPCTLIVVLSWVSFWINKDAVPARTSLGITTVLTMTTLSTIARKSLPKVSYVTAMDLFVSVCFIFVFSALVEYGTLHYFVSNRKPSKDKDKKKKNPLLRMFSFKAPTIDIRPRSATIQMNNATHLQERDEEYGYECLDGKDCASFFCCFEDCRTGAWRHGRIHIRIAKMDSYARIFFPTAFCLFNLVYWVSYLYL
T1 sequence (P28472 whole entry): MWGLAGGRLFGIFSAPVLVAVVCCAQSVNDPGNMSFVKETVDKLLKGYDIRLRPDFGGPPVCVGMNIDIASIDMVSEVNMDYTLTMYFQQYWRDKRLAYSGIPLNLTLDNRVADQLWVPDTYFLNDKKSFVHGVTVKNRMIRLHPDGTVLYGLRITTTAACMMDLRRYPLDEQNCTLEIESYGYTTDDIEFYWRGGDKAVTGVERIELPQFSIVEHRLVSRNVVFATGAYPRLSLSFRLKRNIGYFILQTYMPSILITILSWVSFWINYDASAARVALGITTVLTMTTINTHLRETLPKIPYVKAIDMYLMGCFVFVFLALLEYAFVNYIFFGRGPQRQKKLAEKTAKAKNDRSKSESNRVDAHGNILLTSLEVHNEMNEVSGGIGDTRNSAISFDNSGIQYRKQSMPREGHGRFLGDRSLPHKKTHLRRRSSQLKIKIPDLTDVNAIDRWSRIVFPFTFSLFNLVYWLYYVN
T1 sequence (P34903 whole entry): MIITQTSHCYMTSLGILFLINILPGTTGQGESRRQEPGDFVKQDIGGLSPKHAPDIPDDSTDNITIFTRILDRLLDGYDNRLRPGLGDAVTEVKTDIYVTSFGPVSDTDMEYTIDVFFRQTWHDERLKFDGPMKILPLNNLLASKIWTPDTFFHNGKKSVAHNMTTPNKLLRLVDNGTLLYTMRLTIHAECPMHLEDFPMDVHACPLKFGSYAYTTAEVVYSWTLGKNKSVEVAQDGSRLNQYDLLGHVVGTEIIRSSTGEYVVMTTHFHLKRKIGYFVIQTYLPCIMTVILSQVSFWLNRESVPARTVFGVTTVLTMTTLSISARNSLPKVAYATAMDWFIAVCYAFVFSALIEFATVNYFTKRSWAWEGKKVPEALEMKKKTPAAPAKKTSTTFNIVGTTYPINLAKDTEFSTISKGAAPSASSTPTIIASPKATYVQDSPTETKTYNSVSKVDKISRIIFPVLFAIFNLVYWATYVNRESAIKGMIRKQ

[8] = molecular target: T2, GABA-A receptor; alpha-5/beta-3/gamma-2 (Homo sapiens, UniProt P18507+P28472+P31644); experiment: Displacement of [3H]Ro-151788 from human recombinant GABAA alpha5 in combination with beta3gamma2 expressed in L(tk-) cells; format: cell-based
T2 sequence (P18507 whole entry): T1 sequence (P18507 whole entry)
T2 sequence (P28472 whole entry): T1 sequence (P28472 whole entry)
T2 sequence (P31644 whole entry): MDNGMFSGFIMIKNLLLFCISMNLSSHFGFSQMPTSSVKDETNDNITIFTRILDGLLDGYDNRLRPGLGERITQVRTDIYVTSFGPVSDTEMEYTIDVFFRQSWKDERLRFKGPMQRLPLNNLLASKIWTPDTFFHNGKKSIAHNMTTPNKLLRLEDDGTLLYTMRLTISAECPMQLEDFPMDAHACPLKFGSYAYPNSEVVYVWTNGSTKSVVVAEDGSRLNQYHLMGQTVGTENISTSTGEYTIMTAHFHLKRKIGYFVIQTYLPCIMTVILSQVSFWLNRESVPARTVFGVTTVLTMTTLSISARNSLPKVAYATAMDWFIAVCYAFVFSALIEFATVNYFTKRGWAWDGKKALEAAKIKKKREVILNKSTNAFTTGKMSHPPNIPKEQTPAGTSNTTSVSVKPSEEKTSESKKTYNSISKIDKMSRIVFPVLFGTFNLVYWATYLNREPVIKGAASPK

[9] = molecular target: T3, GABA-A receptor; alpha-5/beta-3/gamma-2 (Homo sapiens) (UniProt P18507+P28472+P31644); experiment: Efficacy against human recombinant GABAA alpha5 in combination with beta3gamma2 expressed in L(tk-) cells by whole cell patch clamp method; format: functional, cell-based
Squirrel monkey = experiment: Anxiolytic activity in squirrel monkey conditioned emotional response test at 0.3 mg/kg, po; format: functional, organism-based; set-up: dose 0.3 mg/kg; details: Saimiri sciureus
[10] = molecular target: GABA-A receptor; alpha-1/beta-3/gamma-2 (Homo sapiens) (UniProt P14867+P18507+P28472); experiment: Efficacy against human recombinant GABAA alpha-1-beta-3-gamma-2 expressed in L(tk-) cells by whole cell patch clamp method relative to chlordiazepoxide; format: functional, cell-based
[11] = molecular target: T4, GABA-A receptor; alpha-2/beta-3/gamma-2 (Homo sapiens) (UniProt P18507+P28472+P47869); experiment: Efficacy against human recombinant GABAA alpha-2-beta-3-gamma-2 expressed in L(tk-) cells by whole cell patch clamp method relative to chlordiazepoxide; format: functional, cell-based
[12] = molecular target: GABA-A receptor; alpha-3/beta-3/gamma-2 (Homo sapiens) (UniProt P18507+P28472+P34903); experiment: Efficacy against human recombinant GABAA alpha-3-beta-3-gamma-2 expressed in L(tk-) cells by whole cell patch clamp method relative to chlordiazepoxide; format: functional, cell-based
[13] = molecular target: T3, GABA-A receptor; alpha-5/beta-3/gamma-2 (Homo sapiens); experiment: Efficacy against human recombinant GABAA alpha-5-beta-3-gamma-2 expressed in L(tk-) cells by whole cell patch clamp method relative to chlordiazepoxide; format: functional, cell-based
[14] = molecular target: T4, GABA-A receptor; alpha-2/beta-3/gamma-2 (Homo sapiens); experiment: Efficacy against human recombinant GABAA alpha-2-beta-3-gamma-2 expressed in L(tk-) cells by whole cell patch clamp method; format: cell-based
Rattus norvegicus [15] = experiment: Activity in rat elevated plus maze assay at 3 mg/kg, po; format: functional, organism-based; set-up: dose 3 mg/kg

Row | bioavailability [1] [%] | clearance [2] [mL/min/kg] | bioavailability [3] [%] | clearance [4] [mL/min/kg] | half-life [5] [h] | Ki [7] [nM] | Ki [8] [nM] | Efficacy [9] [%] | Efficacy [10] [%] | Efficacy [11] [%] | Efficacy [12] [%] | Efficacy [13] [%] | Efficacy [14] [%] | Compound | Activity (Rattus norvegicus [6]) | Activity (Squirrel monkey) | Activity (Rattus norvegicus [15])
1 | 29 | 2.9 | 49 | 3 | 13.4 | 0.73 | 0.5 | 2 |  |  |  |  |  | N#Cc1cc(F)ccc1-c1cc(-c2cnc3nc(C(F)(F)F)ccn23)ccc1F | Active | Active | 
2 | 48 | 8.2 |  |  |  | 4 | 0.53 | 20 | 5 | 39 | 54 | 18 | 48 | CC(C)(O)c1ccn2c(-c3ccc(F)c(-c4cccnc4)c3)cnc2n1 |  | Active | Active
